This note sets out measurements from patent publication US20150125407A1, “Vesicular Formulations, Uses and Methods” (Sequessome Technology Holdings Ltd, priority 2012, published 2015).

Structures are written as SMILES.

This assay concerns acne vulgaris. The assay can be described thus: Use example 1: topical roaccutane alone or layered with Rossoseq gel in teenage acne vulgaris. The settings on record: topically applied roaccutane alone; person.

Turning to `CC1=C(/C=C/C(C)=C/C=C/C(C)=C\C(=O)O)C(C)(C)CCC1` [roaccutane], the “effect on acne vulgaris” value was “did not have a significant effect”.
